According to patent US20110112135A1, “Imidazo [1,2-A] Pyridine Compounds” (priority 2007, published 2011):

Tests used:
ABCA1 gene = test: Quantitative analysis of ABCA1 gene regulation in THP-1 cells (real-time PCR); assay type: cell-based, human; settings: Gene regulation by LXR (Human), differentiated THP-1 cells, 18 hrs; for EC50: ABCA1 mRNA, read-out: EC50 ABCA1; for Emax: LXR agonist reference at 1.0 uM as positive control, read-out: Agonism ABCA1
Protocol: III. Quantitative Analysis of ABCA1 Gene Regulation in THP-1 Cells. The compounds of formula (I) effect on the regulation of the ABCA1 gene was evaluated using the following procedure. Materials and Methods Cell culture: The THP-1 monocytic cell line (ATCC #TIB-202) was obtained from American Type Culture Collection (Manassas, Va.) and cultured in RPMI 1640 medium (Gibco, Carlsbad, Calif.) containing 10% FBS, 2 mM L-glutamine, and 55 uM beta-Mercaptoethanol (BME). […] Louis, Mo.) for three days to induce differentiation into adherent macrophages. Differentiated THP-1 cells were treated with test compounds or ligands dissolved in DMSO (Sigma, D-8779) in culture medium lacking phorbal ester. […] Dose response effects were measured in duplicate, in the range of 0.001 to 30 micromolar concentrations and treated cells were incubated for an additional 18 hrs prior to RNA isolation. Unstimulated cells treated with vehicle were included as negative controls on each plate. […] L., J. Med. Chem. (2000), 45:1963-1966.). Results of antagonist analysis are expressed as % antagonism and IC50 (in μM). RNA isolation and quantitation: Total cellular RNA was isolated from treated cells cultured in 96-well plates using PrepStation 6100 (Applied Biosystems, Foster City, Calif.), according to the manufacturer's recommendations. RNA was resuspended in ribonuclease-free water and stored at -70° C. prior to analysis. RNA concentrations were quantitated with RiboGreen test procedure, #R-11490 (Molecular Probes, Eugene, Oreg.). Gene expression analysis: Gene-specific mRNA quantitation was performed by real-time PCR with the Perkin Elmer Corp. chemistry on an ABI Prism 7700 Sequence detection system (Applied Biosystems, Foster City, Calif.) according to the manufacturer's instructions. Samples (50-100 ng) of total RNA were assayed in duplicate or triplicate in 50 ul reactions using one-step RT-PCR and the standard curve method to estimate specific mRNA concentrations. Sequences of gene-specific primer and probe sets were designed with Primer Express Software (Applied Biosystems, Foster City, Calif.). […] Relative levels of ABCA1 mRNA are normalized using GAPDH mRNA or 18S rRNA probe/primer sets purchased commercially (Applied Biosystems, Foster City, Calif.). Statistics: Mean, standard deviation and statistical significance of duplicate evaluations of RNA samples were assessed using ANOVA, one-way analysis of variance using SAS analysis. Reagents: -GAPDH Probe and Primers-Taqman GAPDH Control Reagents 402869 or 4310884E 18S Ribosomal RNA-Taqman 18S Control Reagents 4308329 […] Qiagen Quantitect probe RT-PCR 204443.

human LXRβ = target: T1, human LXRβ (Homo sapiens, UniProt P55055); test: Ligand-binding test procedure for human LXRβ (3H T0901317 tracer, flash plates); settings: biotinylated hLXRβ from E. coli extract; tracer 3H T0901317
T1 construct: biotin (biotinylated); made in house; host or cells: E. coli (crude extract)
T1 sequence (P55055 1-460): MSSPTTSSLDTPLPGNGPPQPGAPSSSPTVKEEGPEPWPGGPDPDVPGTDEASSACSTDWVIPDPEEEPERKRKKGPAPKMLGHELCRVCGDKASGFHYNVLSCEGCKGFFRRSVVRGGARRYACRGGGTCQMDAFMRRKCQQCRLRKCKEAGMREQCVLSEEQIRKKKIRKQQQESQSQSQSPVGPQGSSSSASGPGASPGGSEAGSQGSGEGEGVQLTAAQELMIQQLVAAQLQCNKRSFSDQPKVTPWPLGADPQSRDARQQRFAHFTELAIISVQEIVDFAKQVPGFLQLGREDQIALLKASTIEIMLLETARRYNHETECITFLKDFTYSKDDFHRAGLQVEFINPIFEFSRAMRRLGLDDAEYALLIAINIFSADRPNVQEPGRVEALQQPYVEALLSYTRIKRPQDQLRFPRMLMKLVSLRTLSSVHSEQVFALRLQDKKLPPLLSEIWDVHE
Method in brief: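 Biotinylated hLXRβ from E. coli extract was captured on streptavidin flash plates (Bmax ~4000 cpm) at 4 °C overnight. Test ligand dilutions were mixed with 5 nM [3H]T0901317 tracer solution and incubated on the plates overnight at 4 °C; bound radioactivity was counted after washing.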

human LXRα = target: T2, human LXRα (Homo sapiens, UniProt Q13133); test: Ligand-binding test procedure for human LXRα (3H T0901317 tracer, flash plates); settings: biotinylated hLXRα from E. coli extract; tracer 3H T0901317
T2 construct: biotin (biotinylated); made in house; host or cells: E. coli (crude extract)
T2 sequence (Q13133 1-447): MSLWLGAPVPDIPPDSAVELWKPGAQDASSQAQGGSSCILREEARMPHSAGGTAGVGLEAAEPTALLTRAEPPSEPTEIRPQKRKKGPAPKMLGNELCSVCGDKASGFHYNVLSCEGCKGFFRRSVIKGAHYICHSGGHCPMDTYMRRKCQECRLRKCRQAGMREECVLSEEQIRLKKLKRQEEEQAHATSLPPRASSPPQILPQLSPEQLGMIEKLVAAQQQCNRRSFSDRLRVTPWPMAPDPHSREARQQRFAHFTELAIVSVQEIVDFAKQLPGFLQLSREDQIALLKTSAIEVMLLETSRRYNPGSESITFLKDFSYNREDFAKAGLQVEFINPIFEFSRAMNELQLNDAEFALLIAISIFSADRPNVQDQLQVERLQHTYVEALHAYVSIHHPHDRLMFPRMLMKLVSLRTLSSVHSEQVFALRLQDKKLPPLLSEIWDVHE
Method in brief: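 Biotinylated hLXRα from E. coli extract (50 mM Tris) captured on streptavidin flash plates overnight at 4 °C. Compound dilution series mixed with 5 nM [3H]T0901317 (concentration before mixing), incubated overnight at 4 °C; wells aspirated, washed and remaining radioactivity counted.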

EC50 (ABCA1 gene) [nM] | IC50 (human LXRβ) [nM] | IC50 (human LXRα) [nM] | Structure (SMILES) | Emax (ABCA1 gene) [%]
1470 | 79.6 | 1920 | CCc1nc2c(C#N)cccn2c1-c1cccc(Oc2cccc(S(=O)(=O)NC)c2)c1 [Example 51, 3-[3-(8-cyano-2-ethylimidazo[1,2-a]pyridin-3-yl)phenoxy]-N-methylbenzenesulfonamide] | 93
1640 | 19.8 | 456 | CC(C)c1nc2c(C(F)(F)F)cccn2c1-c1cccc(Oc2cccc(S(=O)(=O)CCCO)c2)c1 [Example 61, 3-[(3-{3-[2-isopropyl-8-(trifluoromethyl)imidazo[1,2-a]pyridin-3-yl]phenoxy}phenyl)sulfonyl]propan-1-ol] | 60
304 | 17.3 | 642 | CCc1nc2c(Cl)cccn2c1-c1cccc(Oc2cccc(S(C)(=O)=O)c2)c1 [Example 63, 8-chloro-2-ethyl-3-{3-[3-(methylsulfonyl)phenoxy]phenyl}imidazo[1,2-a]pyridine] | 96
640 | 15.1 | 399 | CCc1nc2c(Cl)cccn2c1-c1cccc(Oc2cccc(S(=O)(=O)CC)c2)c1 [Example 64, 8-chloro-2-ethyl-3-{3-[3-(ethylsulfonyl)phenoxy]phenyl}imidazo[1,2-a]pyridine] | 79
1290 | 16.9 | 315 | CCc1nc2c(Cl)cccn2c1-c1cccc(Oc2cccc(S(=O)(=O)C(C)C)c2)c1 [Example 65, 8-chloro-2-ethyl-3-{3-[3-(isopropylsulfonyl)phenoxy]phenyl}imidazo[1,2-a]pyridine] | 113
1620 | 9.5 | 405 | CCS(=O)(=O)c1cccc(Oc2cccc(-c3c(C(C)C)nc4c(Cl)cccn34)c2)c1 [Example 67, 8-chloro-3-{3-[3-(ethylsulfonyl)phenoxy]phenyl}-2-isopropylimidazo[1,2-a]pyridine] | 81
1260 | 7.1 | 406 | CC(C)c1nc2c(Cl)cccn2c1-c1cccc(Oc2cccc(S(=O)(=O)C(C)C)c2)c1 [Example 68, 8-chloro-2-isopropyl-3-{3-[3-(isopropylsulfonyl)phenoxy]phenyl}imidazo[1,2-a]pyridine] | 93
1260 | 107 | 4670 | CCc1nc2c(C#N)cccn2c1-c1cccc(Oc2cccc(S(=O)(=O)CC)c2)c1 [Example 70, 2-ethyl-3-{3-[3-(ethylsulfonyl)phenoxy]phenyl}imidazo[1,2-a]pyridine-8-carbonitrile] | 95
1940 | 37.2 | 2430 | CCc1nc2c(C#N)cccn2c1-c1cccc(Oc2cccc(S(=O)(=O)C(C)C)c2)c1 [Example 71, 2-ethyl-3-{3-[3-(isopropylsulfonyl)phenoxy]phenyl}imidazo[1,2-a]pyridine-8-carbonitrile] | 96
2040 | 36.5 | 1880 | CCS(=O)(=O)c1cccc(Oc2cccc(-c3c(C(C)C)nc4c(C#N)cccn34)c2)c1 [Example 73, 3-{3-[3-(ethylsulfonyl)phenoxy]phenyl}-2-isopropylimidazo[1,2-a]pyridine-8-carbonitrile] | 82
560 | 24 | 1260 | CC(C)c1nc2c(C#N)cccn2c1-c1cccc(Oc2cccc(S(=O)(=O)C(C)C)c2)c1 [Example 74, 2-isopropyl-3-{3-[3-(isopropylsulfonyl)phenoxy]phenyl}imidazo[1,2-a]pyridine-8-carbonitrile] | 97
1460 | 9 | 167 | CC(C)(C)c1nc2c(C(F)(F)F)cccn2c1-c1cccc(Oc2cccc(S(=O)(=O)CCCO)c2)c1 [Example 78, 3-[(3-{3-[2-tert-butyl-8-(trifluoromethyl)imidazo[1,2-a]pyridin-3-yl]phenoxy}phenyl)sulfonyl]propan-1-ol] | 92
285 | 23.7 | 745 | CCS(=O)(=O)c1cccc(Oc2cccc(-c3c(C(C)(C)C)nc4c(C#N)cccn34)c2)c1 [Example 79, 2-tert-butyl-3-{3-[3-(ethylsulfonyl)phenoxy]phenyl}imidazo[1,2-a]pyridine-8-carbonitrile] | 60
290 | 11.5 | 309 | CC(C)c1nc2c(C#N)cccn2c1-c1cc(Oc2cccc(S(C)(=O)=O)c2)ccc1Cl [Example 82, 3-{2-chloro-5-[3-(methylsulfonyl)phenoxy]phenyl}-2-isopropylimidazo[1,2-a]pyridine-8-carbonitrile] | 70
260 | 6.8 | 218 | CCS(=O)(=O)c1cccc(Oc2ccc(Cl)c(-c3c(C(C)C)nc4c(C#N)cccn34)c2)c1 [Example 83, 3-{2-chloro-5-[3-(ethylsulfonyl)phenoxy]phenyl}-2-isopropylimidazo[1,2-a]pyridine-8-carbonitrile] | 76
375 | 8.5 | 276 | CC(C)c1nc2c(C#N)cccn2c1-c1cc(Oc2cccc(S(=O)(=O)C(C)C)c2)ccc1Cl [Example 84, 3-{2-chloro-5-[3-(isopropylsulfonyl)phenoxy]phenyl}-2-isopropylimidazo[1,2-a]pyridine-8-carbonitrile] | 70
2780 | > 1000 | > 1000 | CC(C)c1nc2c(C(F)(F)F)cccn2c1-c1ccc(-c2ccc(S(=O)(=O)C(C)C)cc2)cc1 [Example 91, 2-isopropyl-3-(4′-(isopropylsulfonyl)biphenyl-4-yl)-8-(trifluoromethyl)imidazo[1,2-a]pyridine] | 33
620 | 179 | > 1000 | CC(C)c1nc2c(C(F)(F)F)cccn2c1-c1ccc(Oc2cccc(S(C)(=O)=O)c2)cc1 [Example 119, 2-(1-methylethyl)-3-{4-[3-(methylsulfonyl)phenoxy]phenyl}-8-(trifluoromethyl)imidazo[1,2-a]pyridine] | 59
